What was measured:
TabsPBP2 = experiment: Competitive fluorescence binding assay with 1-NPN probe; set-up: species or system Tuta absoluta; conditions: competitive displacement of 1-NPN (2 µM), 2 μM TabsPBP2, pH 7.4; for Ki: calculated from IC50
Protocol: Fluorescence binding assays were performed on a Cary Eclipse Fluorescence Spectrophotometer (Agilent Technologies, Palo Alto, CA, USA) to quantify TabsPBP2’s binding affinity for sex pheromones and tomato volatiles. Using n-phenyl-1-naphthylamine (1-NPN) as a fluorescent probe (1 mM in methanol), 2 μM TabsPBP2 (in 50 mM Tris-HCl, pH 7.4) were titrated with 1-NPN (2–16 µM). Fluorescence was excited at 337 nm with emission scanned from 350 and 500 nm. Ligand binding affinities were measured via competitive assays with 1-NPN (2 µM). Titration ranges: 0.5–4 μM (sex pheromones) and 2–50 μM (tomato volatiles). The binding constant (K1-NPN) for 1-NPN was calculated, followed by calculation of the dissociation constant (Ki) from IC50 values using the equation: Ki = [IC50]/(1 + [1-NPN]/K1-NPN), where [1-NPN] represents the free concentration of 1-NPN.

adult T. absoluta = system: adult T. absoluta; set-up: method as in doi:10.1127/entomologia/2024/2399; conditions: cited from earlier work
T. absoluta females = system: T. absoluta females; set-up: method as in PMID 29404818; conditions: cited from earlier work

CC1=CC2C(CC1)C2(C)C (stereo not shown) [2-carene, 2-Carene]
IC50 (TabsPBP2): 7.47 ± 1.2 µM | Ki (TabsPBP2): 5.5 ± 0.92 µM

COC(=O)c1ccccc1O [methyl salicylate, Methyl salicylate]
IC50 (TabsPBP2): 18.6 ± 1.38 µM | Ki (TabsPBP2): 13 ± 1.23 µM | behavioral effect on adult T. absoluta (adult T. absoluta): repel | EAG responses in females (T. absoluta females): elicit EAG responses

C=CC(=C)CCC=C(C)C [myrcene, Myrcene]
IC50 (TabsPBP2): 6.22 ± 0.85 µM | Ki (TabsPBP2): 4.68 ± 0.66 µM | behavioral effect on adult T. absoluta (adult T. absoluta): repel | EAG responses in females (T. absoluta females): elicit EAG responses

C=C1CCC2(C(C)C)CC12 (stereo not shown) [sabinene, Sabinene]
IC50 (TabsPBP2): 13.6 ± 1.85 µM | Ki (TabsPBP2): 11.4 ± 1.88 µM

CC1=CCC2CC1C2(C)C (stereo not drawn) [α-pinene, α-Pinene]
IC50 (TabsPBP2): 9.98 ± 0.98 µM | Ki (TabsPBP2): 7.48 ± 0.57 µM

CC1=CC=C(C(C)C)CC1 [α-terpinene, α-Terpinene]
IC50 (TabsPBP2): 14.6 ± 5.16 µM | Ki (TabsPBP2): 10.2 ± 3.6 µM

CC/C=C\CCO [cis-3-hexen-l-ol, cis-3-Hexen-l-ol]
IC50 (TabsPBP2): 19.5 ± 2.39 µM | Ki (TabsPBP2): 13.7 ± 1.9 µM | EAG responses in females (T. absoluta females): elicit EAG responses
